Tests used:
PTPN11/SHP2 = PTPN11/SHP2 (Homo sapiens, UniProt Q06124); assay: Phosphatase assay PTPN11/SHP2; type: biochemical; settings: Table 2C; read-out: Compound IC50 (M) PTPN11/SHP2
FXR = FXR (Homo sapiens, UniProt Q96RI1); settings: Ogundare et al., 2010; cited from earlier work
LXR = settings: Ogundare et al., 2010; cited from earlier work
RXR/NURR1 = settings: Ogundare et al., 2010; cited from earlier work
[1] = Body weight of mice after i.p. deuterated ENT-03; type: in vivo
Description: The presence of the deuterium on the side chain likely slows the action of the 2-methylacyl-coenzyme A racemase on C-25, the subsequent action of the dehydrogenase that produces the 24,25-trans-unsaturated derivative by removing the deuterium atoms at C24 and C25, and the subsequent hydration and oxidation at the C24 bond catalyzed by the D-bifunctional protein. Instead, the metabolism of ENT-03D3 will begin with the oxidation at C24 by CYP46A1, yielding the following compound: […]

PP1B = molecular target: T1, PP1B (Homo sapiens, UniProt P62140); assay: Phosphatase assay PP1B (DiFMUP fluorescence); type: biochemical
T1 construct: purchased Recation Biology Inc

PP1A = molecular target: T2, PP1A (Homo sapiens, UniProt P62136); assay: Phosphatase assay PP1A (DiFMUP fluorescence); type: biochemical
T2 construct: purchased Recation Biology Inc

PTPN6/SHP1 = molecular target: T3, PTPN6/SHP1 (Homo sapiens, UniProt P29350); assay: Phosphatase assay PTPN6/SHP1; type: biochemical
T3 construct: purchased Recation Biology Inc

PTPN11/SHP2-FL (E76K) = molecular target: T4, PTPN11/SHP2-FL (E76K) (Homo sapiens, UniProt Q06124, E76K); assay: Phosphatase assay PTPN11/SHP2-FL (E76K)
T4 sequence (Q06124 2-597 isoform Q06124-1 E76K): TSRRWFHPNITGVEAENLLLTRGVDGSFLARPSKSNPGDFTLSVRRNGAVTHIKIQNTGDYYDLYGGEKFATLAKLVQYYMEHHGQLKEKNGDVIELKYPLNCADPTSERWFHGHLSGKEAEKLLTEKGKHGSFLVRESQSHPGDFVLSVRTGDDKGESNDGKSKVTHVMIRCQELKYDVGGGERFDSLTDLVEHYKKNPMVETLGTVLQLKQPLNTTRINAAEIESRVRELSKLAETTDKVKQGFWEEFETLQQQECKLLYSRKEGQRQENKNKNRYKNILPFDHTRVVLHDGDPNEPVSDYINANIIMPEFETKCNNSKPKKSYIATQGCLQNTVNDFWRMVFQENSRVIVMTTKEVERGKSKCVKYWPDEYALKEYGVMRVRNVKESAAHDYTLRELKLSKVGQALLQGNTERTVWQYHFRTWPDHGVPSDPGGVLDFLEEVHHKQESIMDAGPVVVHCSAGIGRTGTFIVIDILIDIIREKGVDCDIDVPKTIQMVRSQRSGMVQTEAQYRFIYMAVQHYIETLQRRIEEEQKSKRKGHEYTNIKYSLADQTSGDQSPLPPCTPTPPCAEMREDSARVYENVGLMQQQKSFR

[2] = molecular target: T5, PP2A Alpha/PP2R1A Complex (Homo sapiens, UniProt P67775); assay: Phosphatase assay PP2A Alpha/PP2R1A Complex; type: biochemical
T5 construct: purchased Recation Biology Inc

PTPN2/TC-PTP = molecular target: T6, PTPN2/TC-PTP (Homo sapiens, UniProt P17706); assay: Phosphatase assay PTPN2/TC-PTP; type: biochemical
T6 construct: purchased Recation Biology Inc
T6 sequence (P17706 1-415): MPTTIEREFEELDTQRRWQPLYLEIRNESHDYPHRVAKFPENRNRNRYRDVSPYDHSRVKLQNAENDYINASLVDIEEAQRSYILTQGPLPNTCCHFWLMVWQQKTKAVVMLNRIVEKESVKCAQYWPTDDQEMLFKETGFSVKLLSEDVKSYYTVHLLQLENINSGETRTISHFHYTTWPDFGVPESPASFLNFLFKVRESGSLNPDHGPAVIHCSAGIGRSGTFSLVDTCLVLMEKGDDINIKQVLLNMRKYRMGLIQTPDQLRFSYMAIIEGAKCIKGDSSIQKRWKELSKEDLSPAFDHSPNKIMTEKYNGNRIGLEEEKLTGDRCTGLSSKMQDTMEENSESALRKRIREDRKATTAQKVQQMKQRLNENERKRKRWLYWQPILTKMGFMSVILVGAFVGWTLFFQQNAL

stomach mRNA = assay: Stomach transcriptome (RNAseq) after oral ENT-01 in old mice; type: in vivo; settings: old mice after treatment
Protocol: (§1) Male C57Bl/6 mice, aged 20 and 78 weeks, were obtained from Jackson labs. Animals were exposed to 12 hr light dark cycles and provided Teklad standard mouse diet and water ad lib.
(§2) Animals were dosed once daily by oral gavage in the morning for a total of 14 days. Animals were fasted 3-4 hours prior to dosing and at least 1 hour following dosing, with fasting not to exceed 6 hours. The test article was dissolved in 0.5% hydroxypropylcellulose in water. On day 15 the animals were euthanized by CO2 asphyxiation, necropsied, and tissues prepared for histology and RNAseq analysis.
The GI tracts of the animals were sectioned into stomach, duodenum, jejunum, ileum, caecum, colon, and rectum. The tissues were then sent for histology, and the transcriptomes analyzed by RNAseq.

[3] = tested on: stomach tissues gene expression; assay: Stomach RNA-sequencing, effect size evaluation of treatment contrasts; type: in vivo, mice
Protocol: as §1, §2
Samples of stomach tissues from the mice were analysed by RNA-sequencing on an Illumina platform.
A four-fold change in expression between groups was used as a measure of pseudo-significance in the absence of replicate samples. At this threshold, differentially expressed genes were identified in all contrasts. […]

Chain of FXR (Q96RI1 whole entry, species assumed): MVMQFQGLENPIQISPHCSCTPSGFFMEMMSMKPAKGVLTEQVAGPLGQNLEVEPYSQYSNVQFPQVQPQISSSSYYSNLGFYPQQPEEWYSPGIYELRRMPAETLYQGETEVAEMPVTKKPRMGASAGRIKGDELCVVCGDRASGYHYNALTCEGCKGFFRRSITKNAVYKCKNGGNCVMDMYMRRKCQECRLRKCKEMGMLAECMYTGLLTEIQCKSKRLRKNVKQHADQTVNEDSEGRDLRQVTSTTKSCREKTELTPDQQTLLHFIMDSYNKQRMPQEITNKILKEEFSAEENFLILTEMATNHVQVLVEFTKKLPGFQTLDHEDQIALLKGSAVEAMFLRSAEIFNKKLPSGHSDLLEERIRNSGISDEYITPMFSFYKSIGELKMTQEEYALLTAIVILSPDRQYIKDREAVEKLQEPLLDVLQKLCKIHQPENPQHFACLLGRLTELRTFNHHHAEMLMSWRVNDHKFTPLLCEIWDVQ
Chain of PTPN11/SHP2 (Q06124 whole entry): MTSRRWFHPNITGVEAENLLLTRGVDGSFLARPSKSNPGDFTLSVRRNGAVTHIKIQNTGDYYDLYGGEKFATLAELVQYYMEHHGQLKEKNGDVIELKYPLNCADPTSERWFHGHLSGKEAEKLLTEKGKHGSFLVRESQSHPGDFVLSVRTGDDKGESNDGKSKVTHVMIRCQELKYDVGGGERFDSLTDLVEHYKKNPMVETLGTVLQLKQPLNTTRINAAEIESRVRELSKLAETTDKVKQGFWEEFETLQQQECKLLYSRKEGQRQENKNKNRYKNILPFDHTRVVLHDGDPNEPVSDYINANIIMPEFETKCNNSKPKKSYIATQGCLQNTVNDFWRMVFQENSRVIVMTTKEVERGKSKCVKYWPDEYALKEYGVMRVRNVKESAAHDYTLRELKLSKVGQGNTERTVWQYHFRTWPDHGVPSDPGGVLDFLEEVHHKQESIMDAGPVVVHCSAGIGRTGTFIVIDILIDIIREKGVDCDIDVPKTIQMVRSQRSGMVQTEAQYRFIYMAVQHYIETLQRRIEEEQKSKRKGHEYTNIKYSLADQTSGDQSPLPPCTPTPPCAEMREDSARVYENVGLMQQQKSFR
T5 sequence (P67775 whole entry): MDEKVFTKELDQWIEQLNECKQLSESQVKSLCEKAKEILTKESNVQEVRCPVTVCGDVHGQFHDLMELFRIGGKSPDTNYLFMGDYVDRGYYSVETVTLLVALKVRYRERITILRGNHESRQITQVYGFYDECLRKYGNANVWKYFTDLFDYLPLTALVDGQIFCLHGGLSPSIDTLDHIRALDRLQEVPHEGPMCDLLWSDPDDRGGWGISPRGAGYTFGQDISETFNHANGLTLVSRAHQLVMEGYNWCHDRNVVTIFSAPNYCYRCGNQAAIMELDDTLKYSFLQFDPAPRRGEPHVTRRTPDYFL
T5 sequence (P30153 whole entry partner): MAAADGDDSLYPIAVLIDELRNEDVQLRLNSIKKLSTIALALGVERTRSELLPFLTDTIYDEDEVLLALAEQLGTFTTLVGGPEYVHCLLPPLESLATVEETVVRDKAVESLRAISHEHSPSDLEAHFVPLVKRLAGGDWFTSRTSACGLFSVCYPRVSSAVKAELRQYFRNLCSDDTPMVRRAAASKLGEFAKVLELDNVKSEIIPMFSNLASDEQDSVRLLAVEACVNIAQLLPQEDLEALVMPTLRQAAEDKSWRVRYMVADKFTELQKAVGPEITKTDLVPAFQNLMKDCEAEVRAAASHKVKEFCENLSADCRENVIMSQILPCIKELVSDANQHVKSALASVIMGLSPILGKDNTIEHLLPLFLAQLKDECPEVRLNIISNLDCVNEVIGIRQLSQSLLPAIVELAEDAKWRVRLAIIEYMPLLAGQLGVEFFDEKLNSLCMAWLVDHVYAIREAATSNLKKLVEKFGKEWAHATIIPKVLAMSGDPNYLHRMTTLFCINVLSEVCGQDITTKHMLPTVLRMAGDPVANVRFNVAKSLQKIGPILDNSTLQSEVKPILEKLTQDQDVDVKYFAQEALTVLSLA
T3 sequence (P29350 whole entry): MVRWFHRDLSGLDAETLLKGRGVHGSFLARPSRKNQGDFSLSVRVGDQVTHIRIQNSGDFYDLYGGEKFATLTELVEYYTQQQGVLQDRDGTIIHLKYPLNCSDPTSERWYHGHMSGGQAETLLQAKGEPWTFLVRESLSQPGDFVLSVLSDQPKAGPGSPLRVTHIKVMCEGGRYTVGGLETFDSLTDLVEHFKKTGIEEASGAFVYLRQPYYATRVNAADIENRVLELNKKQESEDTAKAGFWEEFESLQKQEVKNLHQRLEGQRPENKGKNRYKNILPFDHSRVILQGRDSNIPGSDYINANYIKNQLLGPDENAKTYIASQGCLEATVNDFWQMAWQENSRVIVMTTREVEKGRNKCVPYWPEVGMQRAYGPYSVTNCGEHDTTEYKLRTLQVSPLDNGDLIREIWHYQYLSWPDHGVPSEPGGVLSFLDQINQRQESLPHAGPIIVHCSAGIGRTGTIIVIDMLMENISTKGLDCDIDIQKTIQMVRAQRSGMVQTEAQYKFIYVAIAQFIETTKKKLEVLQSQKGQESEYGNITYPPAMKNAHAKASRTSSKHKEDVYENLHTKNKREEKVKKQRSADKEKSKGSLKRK
T2 sequence (P62136 whole entry): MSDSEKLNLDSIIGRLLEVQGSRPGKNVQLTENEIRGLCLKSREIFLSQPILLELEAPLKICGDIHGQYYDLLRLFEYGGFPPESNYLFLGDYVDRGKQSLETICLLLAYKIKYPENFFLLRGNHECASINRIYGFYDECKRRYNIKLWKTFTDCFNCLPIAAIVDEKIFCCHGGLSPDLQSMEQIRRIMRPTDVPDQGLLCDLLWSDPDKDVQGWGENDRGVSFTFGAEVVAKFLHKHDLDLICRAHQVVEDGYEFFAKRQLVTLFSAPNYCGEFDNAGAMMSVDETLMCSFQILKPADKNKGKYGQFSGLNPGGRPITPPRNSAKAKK
T1 sequence (P62140 whole entry): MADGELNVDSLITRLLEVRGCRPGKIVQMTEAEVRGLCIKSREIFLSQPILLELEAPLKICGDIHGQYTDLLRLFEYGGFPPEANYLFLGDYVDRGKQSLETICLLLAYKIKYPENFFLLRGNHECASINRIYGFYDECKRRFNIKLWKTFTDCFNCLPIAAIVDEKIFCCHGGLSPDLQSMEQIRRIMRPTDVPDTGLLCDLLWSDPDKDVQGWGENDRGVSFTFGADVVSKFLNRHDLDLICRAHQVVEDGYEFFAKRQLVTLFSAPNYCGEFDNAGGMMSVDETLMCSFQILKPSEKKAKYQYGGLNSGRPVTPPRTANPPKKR

Compound `CCc1oc2cc(S(=O)(=O)Nc3ccc(S(=O)(=O)Nc4nccs4)cc3)ccc2c1C(=O)c1cc(Br)c(O)c(Br)c1` [PTP1B Inhibitor, 3-(3,5-Dibromo-4-hydroxy-benzoyl)-2-ethyl-benzofuran-6-sulfonicacid-(4-(thiazol-2-ylsulfamyl)-phenyl)-amide] has an IC50 (PTPN11/SHP2) of 1.82e-06 M.

For `C[C@H](CCC[C@@H](C)[C@H]1CCC2C3C(CC[C@@]21C)[C@@]1(C)CCC(=O)C=C1C[C@H]3O)C(=O)O` (stereo partly drawn) [7-HOCA, 7-alpha hydroxy-3-oxo-4-cholestenoic acid], the “activation of FXR receptor” value (FXR) is given as “did not activate”, the “activation of LXR receptor” value (LXR) is given as “did not activate” and the “activation of RXR/NURR1 receptors” value (RXR/NURR1) is given as “did not activate”.

For `[2H]C([2H])(CCC(C)C1CCC2C3C(O)CC4CC(NCCCNCCCCNCCCN)CCC4(C)C3CCC12C)C([2H])(C)C(=O)O` (stereo not drawn) [ENT-03D3], the “effect on body weight, in words” value [1] was “gained weight”.

With `CC(CCCC(C)C1CCC2C3C(O)CC4CC(NCCCNCCCCN)CCC4(C)C3CCC12C)C(=O)O` (single isomer, unassigned) [ENT-06] the “activity at PP1B, in words” value (PP1B) was “inactive”, the “activity at PP1A, in words” value (PP1A) was “inactive” and the “activity at PTPN6/SHP1, in words” value (PTPN6/SHP1) was “inactive”. The IC50 (PTPN11/SHP2-FL (E76K)) was 345 nM, the “activity at PP2A alpha, in words” value [2] was “inactive” and the “activity at PTPN2, in words” value (PTPN2/TC-PTP) was “inactive”.

With `CC(CCCC(C)C1CCC2C3C(O)CC4CC(NCCCNCCCCN)CCC4(C)C3CC(O)C12C)C(=O)O` (single isomer, unassigned) [ENT-05] the IC50 (PTPN11/SHP2-FL (E76K)) was 43 nM.

With `CC(C)[C@@H](CC[C@@H](C)[C@H]1CC[C@H]2[C@@H]3[C@H](O)C[C@H]4C[C@@H](NCCCNCCCCN)CC[C@]4(C)[C@H]3CC[C@]12C)OS(=O)(=O)O` (single isomer, unassigned) [ENT-01, squalamine phosphate] the “mRNA levels for all of the genes in Table 5A, in words” value (stomach mRNA) was “significant increase”, the “number of significant features, Down-regulated, fold change threshold 1.3×” value ([3]; Old vs young, both treated) was 1606 and the “number of significant features, Down-regulated, fold change threshold 2×” value ([3]; Old vs young, both treated) was 267. The “number of significant features, Down-regulated, fold change threshold 4×” value ([3]; Old vs young, both treated) was 69, the “number of significant features, Down-regulated, fold change threshold 8×” value ([3]; Old vs young, both treated) was 36 and the “number of significant features, Down-regulated, fold change threshold 16×” value ([3]; Old vs young, both treated) was 27. For the same compound, the “number of significant features, Down-regulated, fold change threshold Any” value ([3]; Old vs young, both treated) was 7534, the “number of significant features, Up-regulated, fold change threshold 1.3×” value ([3]; Old vs young, both treated) was 1647 and the “number of significant features, Up-regulated, fold change threshold 2×” value ([3]; Old vs young, both treated) was 559. The “number of significant features, Up-regulated, fold change threshold 4×” value ([3]; Old vs young, both treated) was 263, the “number of significant features, Up-regulated, fold change threshold 8×” value ([3]; Old vs young, both treated) was 178 and the “number of significant features, Up-regulated, fold change threshold 16×” value ([3]; Old vs young, both treated) was 135. For the same compound, the “number of significant features, Up-regulated, fold change threshold Any” value ([3]; Old vs young, both treated) was 7479, the “number of significant features, Down-regulated, fold change threshold 1.3×” value ([3]; treatment vs control (old)) was 2235 and the “number of significant features, Down-regulated, fold change threshold 2×” value ([3]; treatment vs control (old)) was 431. For the same compound, the “number of significant features, Down-regulated, fold change threshold 4×” value ([3]; treatment vs control (old)) was 66, the “number of significant features, Down-regulated, fold change threshold 8×” value ([3]; treatment vs control (old)) was 25 and the “number of significant features, Down-regulated, fold change threshold 16×” value ([3]; treatment vs control (old)) was 11. The “number of significant features, Down-regulated, fold change threshold Any” value ([3]; treatment vs control (old)) was 7460, the “number of significant features, Up-regulated, fold change threshold 1.3×” value ([3]; treatment vs control (old)) was 2430 and the “number of significant features, Up-regulated, fold change threshold 2×” value ([3]; treatment vs control (old)) was 766. The “number of significant features, Up-regulated, fold change threshold 4×” value ([3]; treatment vs control (old)) was 317, the “number of significant features, Up-regulated, fold change threshold 8×” value ([3]; treatment vs control (old)) was 168 and the “number of significant features, Up-regulated, fold change threshold 16×” value ([3]; treatment vs control (old)) was 116. For the same compound, the “number of significant features, Up-regulated, fold change threshold Any” value ([3]; treatment vs control (old)) was 7553, the “number of significant features, Down-regulated, fold change threshold 1.3×” value ([3]; treatment vs control (young)) was 2367 and the “number of significant features, Down-regulated, fold change threshold 2×” value ([3]; treatment vs control (young)) was 642. For the same compound, the “number of significant features, Down-regulated, fold change threshold 4×” value ([3]; treatment vs control (young)) was 144, the “number of significant features, Down-regulated, fold change threshold 8×” value ([3]; treatment vs control (young)) was 47 and the “number of significant features, Down-regulated, fold change threshold 16×” value ([3]; treatment vs control (young)) was 12. For the same compound, the “number of significant features, Down-regulated, fold change threshold Any” value ([3]; treatment vs control (young)) was 7553, the “number of significant features, Up-regulated, fold change threshold 1.3×” value ([3]; treatment vs control (young)) was 1430 and the “number of significant features, Up-regulated, fold change threshold 2×” value ([3]; treatment vs control (young)) was 232. For the same compound, the “number of significant features, Up-regulated, fold change threshold 4×” value ([3]; treatment vs control (young)) was 58, the “number of significant features, Up-regulated, fold change threshold 8×” value ([3]; treatment vs control (young)) was 38 and the “number of significant features, Up-regulated, fold change threshold 16×” value ([3]; treatment vs control (young)) was 28. For the same compound, the “number of significant features, Up-regulated, fold change threshold Any” value ([3]; treatment vs control (young)) was 7460.
